# Measurements: PMC11982498 (Redox Biology, 2025)
# Key:
# [1] = tested on: bio-HRAS (DNA, i motif) CGCCCGTGCCCTGCGCCCGCAACCCGA; experiment: SPR; conditions: K+ 100 mM; 20 mM MES, pH 5.5, 25 °C
# [2] = molecular target: T1, Aβ1-42 (Homo sapiens, UniProt P05067); experiment: Thioflavine T fluorescence spectroscopy assay (time course to 96 h); type: biochemical; conditions: 20 μM compound, Aβ1-42 incubated for 96 h
# T1 construct: Aβ1-42 was purchased from Gill Biochemicals Ltd (Shanghai, China); purchased Gill Biochemicals Ltd (Shanghai, China)
# Protocol: (§1) The Aβ1-42 solutions (100 μM) were co-incubated with B14 (20 μM) or Curcumin (20 μM) at 37 °C protected from light for 96 h. 30 μL of Aβ1-42 solution was taken at different time points (0 h, 10 h, 24 h, 48 h, 72 h, 96 h), mixed fully with 400 μL of ThT solution (15 μM), and incubated in the dark for 30 min. The fluorescence signal was recorded by using a Cary Eclipse fluorescence spectrophotometer (Varian, USA) with the following setting: excitation wavelength at 440 nm, emission wavelength at 480 nm, and slit width of 20 nm.
# as §1, with “μM) and” for “μM) or”, “Aβ1-42 solutions were” for “Aβ1-42 solution was”, “by” for “by using”, “with” for “with the following setting:”
# [3] = tested on: HRAS promoter i-motif; experiment: TO displacement assay, HRAS i-motif; type: binding
# Protocol: (§2) DNA oligonucleotides were diluted to 1 μM with 1 × PBES buffer at pH 5.5, annealed at 95 °C for 10 min, cooled to room temperature, and stored at 4 °C for future use. TO dye (1 μM) was added to the DNA solution followed with incubation for 1 h. The spectra of 100 μL mixture with addition of different equivalent compounds at 25 °C were recorded based on fluorescence emission (λex = 480 nm).
# (§3) TO displacement ratio (%) = (F0 − FC) / (F0 − FB) * 100.
# (§4) F0 and FC were the fluorescence intensity of TO at 536 nm with DNA before and after adding compounds, respectively. FB was the fluorescence intensity of TO at 536 nm with buffer only.
# [4] = tested on: RB promoter i-motif; experiment: TO displacement assay, RB i-motif; type: binding
# Protocol: as §2, §3, §4
# [5] = tested on: HT-22 cells; experiment: MTT cytotoxicity assay, HT-22; type: cell-based; conditions: Mus musculus, incubation for 48 h
# Protocol: SH-SY5Y cells, HepG2 cells, HK-2 cells and HT-22 cells were seeded on 96-well plates (5.0×10^3 per well) with 100 μL of culture medium, and incubated for 12 h at 37 °C in a humidified atmosphere with 5% CO2, and then exposed to various concentrations of B14. After 48 h of treatment at 37 °C in a humidified atmosphere with 5% CO2, 100 μL of 0.5 mg/mL MTT solution was added to each well, and the mixture was further incubated for 4 h. The cells in each well were then treated with DMSO (200 μL for each well), and the culture medium was siphoned off, and the absorbance was recorded at 570 nm. All drug doses were parallel tested in triplicate, and the cytotoxicity was evaluated based on the percentage of cell survival in a dose-dependent manner regarding the negative control. The final IC50 values were determined by using Graph Pad Prism 9.0.
# [6] = tested on: BAX gene transcription in SH-SY5Y cells; experiment: Real-time RT-PCR in SH-SY5Y cells, BAX; type: cell-based, human
# Protocol: SH-SY5Y cells were treated with or without B14, and total RNA was subsequently isolated and purified. Reverse transcription was performed using a cDNA synthesis kit. The relative transcription levels of the genes were evaluated through quantitative real-time PCR using the SYBR Green-based method, as described in the Supplementary Date. Details regarding the primer sequences and the raw data can be found in Table S7 and Table S8.
# (§5) ^a -∆∆Ct = -[(Ct value of genes in treated sample - Ct value of genes in control) - (Ct value of β-actin in treated sample - Ct value of β-actin in control)]. ^b F: The relative expression fold.
# Experiment 1: SH-SY5Y cells were treated with different concentration of B14. The Ct values of BAX, VEGF, CMYC and BCL-2 were obtained.
# Total RNA was extracted from cells and mice liver tissue using RNAiso Plus (Takara, 9109, Japan). Following sample homogenization, chloroform was added, and the solution was allowed to have phase separation into an upper aqueous layer (containing RNA), an interphase, and a lower organic layer (containing DNA and proteins). RNA was precipitated from the aqueous phase using isopropanol, while DNA was precipitated from the aqueous-organic interphase using ethanol. Complementary DNA (cDNA) was synthesized using the One-Step RT-PCR Kit (Takara, Cat#639503, Japan).
# (§6) Quantitative real-time polymerase chain reaction (qRT-PCR) was performed using the 2× RealStar SYBR Mixture (GenStar, Cat# A301-10, Guangzhou, China) on a LightCycler 480 II real-time PCR system (Roche, USA). Data were analyzed using the 2^−ΔΔCt method. Actin served as the internal control, and relative mRNA levels were normalized accordingly.
# [7] = tested on: BAX gene transcription in brain of APP/PS1 mice; experiment: Real-time RT-PCR of mice brain, BAX; type: in vivo
# Protocol: Five months old male APP/PS1 mice, weighing 25–33 g, were purchased from Guangdong Medical Laboratory Animal Center and housed in the Laboratory Animal Center of Sun Yat-sen University (Guangzhou, China) for experimentation. […] The mice were housed in a specific pathogen-free environment with a controlled temperature of 22 ± 1 °C and a 12-h dark/light cycle. The mice were fed with a standard diet, and 30 mice were randomly divided into 6 groups (N = 5). […] Behavioral experiments were then conducted, and tissue specimens were collected for biochemical analysis.
# as §5
# Following sample homogenization, chloroform was added, and the solution was allowed to have phase separation into an upper aqueous layer (containing RNA), an interphase, and a lower organic layer (containing DNA and proteins). RNA was precipitated from the aqueous phase using isopropanol, while DNA was precipitated from the aqueous-organic interphase using ethanol.
# as §6
# T1 sequence (P05067 672-713 limits assumed): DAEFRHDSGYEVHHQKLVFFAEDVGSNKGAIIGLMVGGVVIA
structure (smiles),measurement,setting,value
O=C(CCN1CCOCC1)Nc1ccc2c(c1)c(=O)c1cc(NC(=O)CCN3CCOCC3)ccc1n2-c1ccc2occc2c1 [Compound B14],KD,[1],> 50 µM
same,decrease of ThT fluorescence intensity,[2],39.58 ± 2.08%
same,TO displacement ratio,[3],16%
same,TO displacement ratio,[4],1%
same,IC50,[5],> 100 µM
same,"-∆∆Ct, BAX",[6]; 6.25 μM B14,-0.13
same,"F = 2^-∆∆Ct (relative expression fold), BAX",[6]; 6.25 μM B14,1.09
same,"-∆∆Ct, BAX",[6]; 12.5 μM B14,0
same,"F = 2^-∆∆Ct (relative expression fold), BAX",[6]; 12.5 μM B14,1.00
same,"-∆∆Ct, BAX",[6]; 25 μM B14,-0.03
same,"F = 2^-∆∆Ct (relative expression fold), BAX",[6]; 25 μM B14,1.02
same,"-∆∆Ct, BAX",[7]; 10 mg/kg,-0.16
same,"F = 2^-∆∆Ct (relative expression fold), BAX",[7]; 10 mg/kg,1.11
same,"-∆∆Ct, BAX",[7]; 20 mg/kg,0.08
same,"F = 2^-∆∆Ct (relative expression fold), BAX",[7]; 20 mg/kg,0.94
same,"-∆∆Ct, BAX",[7]; 40 mg/kg,0.21
same,"F = 2^-∆∆Ct (relative expression fold), BAX",[7]; 40 mg/kg,0.86
